From patent US10245244B2, “Pharmaceutical formulations for the treatment of pulmonary arterial hypertension” (HEART BIOTECH PHARMA LIMITED, priority 2014, dated 2019)

How the values were obtained:
pulmonary arteries = experiment: U46619 contractile responses of pulmonary arteries; details: control mice (normoxic), FIG. 9a
aorta = experiment: U46619 contractile responses of aorta; details: control mice (normoxic), FIG. 9a

In the case of `CCCCC[C@H](O)/C=C/[C@@H]1[C@@H](C/C=C\CCCC(=O)O)[C@H]2CO[C@@H]1C2` [U46619, 9,11-Dideoxy-9α,11α-methanoepoxy prostaglandin F2α], the “contraction of the pulmonary artery” value (pulmonary arteries) is reported as “less contraction” and the “contraction of the aorta” value (aorta) is reported as “significant contraction”.
